The values below are quoted from earlier work in patent US20060036094A1 (priority 2004, published 2006).

The test system of this data set is phorbol myristate-induced inflammation.

As for zoanthamine, the “inhibitory activity toward phorbol myristate-induced inflammation” value was “potent inhibitory activity”.
